The values below come from patent publication US20250114359A1, “METHODS FOR […] G[…]/OR HEXOKINASE” (UNIVERSITY OF SOUTH CAROLINA, priority 2023, published 2025).

For this experiment, the target named is Trypanosoma cruzi glucokinase (TcGlcK) (Trypanosoma cruzi, UniProt Q4E4E1). Briefly: Determination of Ki values by type 1 and type 2 Dixon plots.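 Note: compounds supplied as 10 mM DMSO stocks (100 µL format), with a non-inhibitory compound run alongside for comparison.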 In kind it is biochemical.
Sequence of Trypanosoma cruzi glucokinase (TcGlcK) (Q4E4E1 1-376): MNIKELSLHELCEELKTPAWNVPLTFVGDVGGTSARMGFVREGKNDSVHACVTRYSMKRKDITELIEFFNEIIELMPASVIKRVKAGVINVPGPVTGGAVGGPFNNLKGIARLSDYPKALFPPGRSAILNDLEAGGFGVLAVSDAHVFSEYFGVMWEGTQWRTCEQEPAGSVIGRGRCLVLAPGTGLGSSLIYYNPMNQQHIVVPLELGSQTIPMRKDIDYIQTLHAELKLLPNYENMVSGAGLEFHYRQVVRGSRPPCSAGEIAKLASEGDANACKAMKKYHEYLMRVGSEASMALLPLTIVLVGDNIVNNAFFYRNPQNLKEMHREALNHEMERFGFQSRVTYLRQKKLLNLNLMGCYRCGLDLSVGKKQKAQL

The structures appear in SMILES notation. pKi: −log10 of the molar value.

Protocol: The inhibition constant can be determined by development of a Dixon plot (either type 1 or type 2) according to standard practice, and as utilized herein refers to the inhibitor concentration at which half maximum inhibition is determined for a 100 μL/10 mM format in DMSO.
Determination of the Ki values for inhibitors was performed by creation of both type 1 and type 2 Dixon plots. The format included 100 μL/10 mM in DMSO.

`Cc1ccc(OCC/N=C/c2c(O)c(O)c(C(C)C)c3cc(C)c(-c4c(C)cc5c(C(C)C)c(O)c(O)c(/C=N/CCOc6ccc(C)cc6)c5c4O)c(O)c23)cc1` [Inhibitor 10] had a pKi of 5.47.

`COc1ccc(OC)c(/N=C/c2c(O)c(O)c(C(C)C)c3cc(C)c(-c4c(C)cc5c(C(C)C)c(O)c(O)c(/C=N/c6cc(OC)ccc6OC)c5c4O)c(O)c23)c1` [Inhibitor 11] showed a pKi of 4.52.

On to `CCOC(=O)Nc1ccc(/N=C/c2c(O)c(O)c(C(C)C)c3cc(C)c(-c4c(C)cc5c(C(C)C)c(O)c(O)c(/C=N/c6ccc(NC(=O)OCC)cc6)c5c4O)c(O)c23)cc1` [Inhibitor 12], for which the pKi is 2.33.

On to `Cc1cc2c(c(O)c1-c1c(C)cc3c(c1O)/C(=C\Nc1ccc(S(=O)(=O)NC(=N)N)cc1)C(=O)C(O)=C3C(C)C)/C(=C/Nc1ccc(S(=O)(=O)NC(=N)N)cc1)C(=O)C(O)=C2C(C)C` [Inhibitor 16], for which the pKi was 5.99.

Regarding `Cc1cc2c(c(O)c1-c1c(C)cc3c(c1O)/C(=C\Nc1c(O)cc(S(=O)(=O)O)c4ccccc14)C(=O)C(O)=C3C(C)C)/C(=C/Nc1c(O)cc(S(=O)(=O)O)c3ccccc13)C(=O)C(O)=C2C(C)C` [Inhibitor 29], the pKi was 5.02.

`Cc1cc2c(c(O)c1-c1c(C)cc3c(c1O)/C(=C/Nc1cccc(C(=C4C=CC(=N)C=C4)c4ccc(N)cc4)c1)C(=O)C(O)=C3C(C)C)/C(=C/Nc1cccc(C(=C3C=CC(=N)C=C3)c3ccc(N)cc3)c1)C(=O)C(O)=C2C(C)C` [Inhibitor 30] gave a pKi of 5.41.

Consider `CC1=C(C2=C(C)C(=O)c3c(c(C=O)c(O)c(O)c3C(C)C)C2=O)C(=O)c2c(C=O)c(O)c(O)c(C(C)C)c2C1=O` [Inhibitor 31], for which the pKi was 3.02.

`Cc1cc2c(c(O)c1-c1c(C)cc3c(c1O)C(C=C1C(=O)NC(=O)NC1=O)C(=O)C(O)=C3C(C)C)C(C=C1C(=O)NC(=O)NC1=O)C(=O)C(O)=C2C(C)C` (stereo not drawn) [Inhibitor 32] showed a pKi of 4.98.

For the compound `Cc1cc(C=O)c(O)c(C=O)c1` [Inhibitor 44], the pKi was 4.00.

`Cc1cc2c(C(C)C)c(O)c(O)c(/C=N/c3ccc(C(O)C(O)CO)cc3)c2c(O)c1-c1c(C)cc2c(C(C)C)c(O)c(O)c(/C=N/c3ccc(C(O)C(O)CO)cc3)c2c1O` (stereo not drawn) [Inhibitor 48] had a pKi of 3.56.

`Cc1cc2c(C(C)C)c(O)c(O)c(/C=N/CC34CC5CC(C)(CC(C)(C5)C3)C4)c2c(O)c1-c1c(C)cc2c(C(C)C)c(O)c(O)c(/C=N/C34CC5CC(C)(CC(C)(C5)C3)C4)c2c1O` [Inhibitor 50]: the pKi is 4.29.

With `COc1cc(/C=N/c2c(C)n(C)n(-c3ccccc3)c2=O)ccc1O` [Inhibitor 62], the pKi is 4.70. Compared with the last compound, the pKi is 0.41 log units higher.

As to `O=C1NC(=S)S/C1=C/c1ccc(O)cc1` [Inhibitor 66], the pKi was 4.83.

Turning to `CN(C)c1ccc(/C=C2/SC(=S)NC2=O)cc1` [Inhibitor 68], the negative-log Ki (pKi) is 6.57. Against the preceding compound, the pKi is 1.74 log units higher.

`COc1ccc2ccccc2c1/C=C1\SC(=S)NC1=O` [Inhibitor 69] had a pKi of 4.89.

For `Cc1cc2c(c(O)c1-c1c(C)cc3c(c1O)/C(=C/NC(C)CCc1ccco1)C(=O)C(O)=C3C(C)C)/C(=C/NC(C)CCc1ccco1)C(=O)C(O)=C2C(C)C` (stereo not drawn) [Inhibitor 73], the pKi is 5.69.

In turn, `CCCCCC1CCC(=O)N1CCN/C=C1\C(=O)C(O)=C(C(C)C)c2cc(C)c(-c3c(C)cc4c(c3O)/C(=C/NCCN3C(=O)CCC3CCCCC)C(=O)C(O)=C4C(C)C)c(O)c21` (stereo not drawn) [Inhibitor 75] gave a pKi of 3.25.

`Cc1cc2c(C(C)C)c(O)c(O)c(/C=N/NC(N)=S)c2c(O)c1-c1c(O)cc2c(/C=N/NC(N)=S)c(O)c(O)c(C(C)C)c2c1C` [comparative compound, reference compound]: the “inhibition (Dixon plots)” value (type 1 and type 2 Dixon plots, comparison compound) was “does not exhibit inhibition”.
